Consider seven compounds from ChEMBL document CHEMBL5465560, “Selectivity Literature for EUbOPEN Chemogenomic Library” (2024).

Assay [1] has as its target SRSF protein kinase 3 (Homo sapiens) (UniProt Q9UPE1). The experiment in a line: Selectivity interaction (KinomeScan (DiscoverX)) EUB0000229b SRPK3. The conditions noted are these: at 10 µM.
For assay [2], the target named is Adenosine receptor A2a (Homo sapiens, UniProt P29274). The experiment in a line: Selectivity interaction (Safety Panel 44tm (Eurofins)) EUB0000162b ADORA2A. The conditions noted are these: at 10 µM.
Assay [3] concerns the target Fibroblast growth factor receptor 3 (Homo sapiens, UniProt P22607). The experiment in a line: Selectivity interaction (ProQinase) EUB0000171b FGFR3. The note with it: at 5 µM.
The target of assay [4] is T1, Serine/threonine-protein kinase 17A (Homo sapiens) (UniProt Q9UEE5).
T1 sequence (whole entry): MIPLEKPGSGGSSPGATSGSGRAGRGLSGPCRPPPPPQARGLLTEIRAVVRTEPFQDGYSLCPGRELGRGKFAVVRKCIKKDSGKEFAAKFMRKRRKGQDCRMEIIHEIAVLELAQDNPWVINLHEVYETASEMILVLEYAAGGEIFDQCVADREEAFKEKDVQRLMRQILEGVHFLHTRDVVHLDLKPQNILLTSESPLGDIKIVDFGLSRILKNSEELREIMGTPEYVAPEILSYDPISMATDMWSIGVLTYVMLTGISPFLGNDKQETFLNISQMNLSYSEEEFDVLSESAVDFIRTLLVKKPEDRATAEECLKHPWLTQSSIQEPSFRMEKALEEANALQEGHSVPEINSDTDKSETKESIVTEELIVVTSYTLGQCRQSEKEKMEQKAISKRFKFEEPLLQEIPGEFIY
The experiment in a line: Selectivity interaction (Kinase panel (DSF assay)) EUB0001489b STK17A. A general note: In DSF a fluorescence change marks the thermal transition of the protein.

The target in assay [5] is T2, Cyclin-G-associated kinase (Homo sapiens) (UniProt O14976).
T2 sequence (whole entry): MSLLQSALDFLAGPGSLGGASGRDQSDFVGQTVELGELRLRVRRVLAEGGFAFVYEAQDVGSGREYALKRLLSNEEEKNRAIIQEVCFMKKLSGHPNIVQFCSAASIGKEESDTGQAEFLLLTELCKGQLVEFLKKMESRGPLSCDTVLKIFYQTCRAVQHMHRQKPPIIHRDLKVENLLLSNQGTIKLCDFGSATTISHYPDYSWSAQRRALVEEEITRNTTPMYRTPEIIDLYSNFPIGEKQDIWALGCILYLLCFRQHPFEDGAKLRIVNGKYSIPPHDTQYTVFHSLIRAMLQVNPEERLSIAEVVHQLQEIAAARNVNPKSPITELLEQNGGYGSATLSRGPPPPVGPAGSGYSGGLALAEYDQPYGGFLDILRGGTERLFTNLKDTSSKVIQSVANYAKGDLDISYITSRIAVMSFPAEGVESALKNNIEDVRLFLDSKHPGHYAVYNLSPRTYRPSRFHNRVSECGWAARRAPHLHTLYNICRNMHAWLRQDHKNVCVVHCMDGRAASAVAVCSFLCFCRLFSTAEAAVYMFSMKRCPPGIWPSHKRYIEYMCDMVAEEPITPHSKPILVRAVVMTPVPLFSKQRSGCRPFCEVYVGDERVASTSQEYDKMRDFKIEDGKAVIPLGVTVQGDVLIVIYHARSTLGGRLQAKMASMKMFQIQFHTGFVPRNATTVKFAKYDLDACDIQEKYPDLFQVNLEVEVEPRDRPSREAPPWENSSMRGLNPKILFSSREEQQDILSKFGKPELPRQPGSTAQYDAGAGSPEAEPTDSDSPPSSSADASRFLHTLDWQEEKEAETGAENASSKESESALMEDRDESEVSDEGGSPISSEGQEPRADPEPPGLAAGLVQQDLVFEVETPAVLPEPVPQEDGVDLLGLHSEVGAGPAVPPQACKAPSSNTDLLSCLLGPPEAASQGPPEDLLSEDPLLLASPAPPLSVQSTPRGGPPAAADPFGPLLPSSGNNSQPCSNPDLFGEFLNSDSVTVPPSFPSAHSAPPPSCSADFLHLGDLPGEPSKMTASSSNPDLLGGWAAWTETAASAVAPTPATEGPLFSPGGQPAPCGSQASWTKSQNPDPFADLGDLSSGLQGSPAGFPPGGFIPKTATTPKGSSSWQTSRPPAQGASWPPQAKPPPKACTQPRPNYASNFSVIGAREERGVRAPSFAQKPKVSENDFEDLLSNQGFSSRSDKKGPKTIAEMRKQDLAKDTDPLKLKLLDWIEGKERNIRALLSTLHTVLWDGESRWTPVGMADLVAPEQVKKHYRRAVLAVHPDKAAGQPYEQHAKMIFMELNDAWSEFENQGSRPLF
The experiment in a line: Selectivity interaction (KinomeScan (DiscoverX)) EUB0000092b GAK. The conditions noted are these: at 10 µM.

Assay [6] deals with Tyrosine-protein kinase CSK (Homo sapiens) (UniProt P41240). The experiment in a line: Selectivity interaction (KinomeScan (DiscoverX)) EUB0000618a CSK. The note with it: at 10 µM.
The target in assay [7] is Mitogen-activated protein kinase kinase kinase 20 (Homo sapiens) (UniProt Q9NYL2). The experiment in a line: Selectivity interaction (KinomeScan (DiscoverX)) EUB0000595a MAP3K20. The conditions noted are these: at 10 µM.
Mitogen-activated protein kinase kinase kinase 20 (Homo sapiens), sequence (Q9NYL2 2-800 limits assumed): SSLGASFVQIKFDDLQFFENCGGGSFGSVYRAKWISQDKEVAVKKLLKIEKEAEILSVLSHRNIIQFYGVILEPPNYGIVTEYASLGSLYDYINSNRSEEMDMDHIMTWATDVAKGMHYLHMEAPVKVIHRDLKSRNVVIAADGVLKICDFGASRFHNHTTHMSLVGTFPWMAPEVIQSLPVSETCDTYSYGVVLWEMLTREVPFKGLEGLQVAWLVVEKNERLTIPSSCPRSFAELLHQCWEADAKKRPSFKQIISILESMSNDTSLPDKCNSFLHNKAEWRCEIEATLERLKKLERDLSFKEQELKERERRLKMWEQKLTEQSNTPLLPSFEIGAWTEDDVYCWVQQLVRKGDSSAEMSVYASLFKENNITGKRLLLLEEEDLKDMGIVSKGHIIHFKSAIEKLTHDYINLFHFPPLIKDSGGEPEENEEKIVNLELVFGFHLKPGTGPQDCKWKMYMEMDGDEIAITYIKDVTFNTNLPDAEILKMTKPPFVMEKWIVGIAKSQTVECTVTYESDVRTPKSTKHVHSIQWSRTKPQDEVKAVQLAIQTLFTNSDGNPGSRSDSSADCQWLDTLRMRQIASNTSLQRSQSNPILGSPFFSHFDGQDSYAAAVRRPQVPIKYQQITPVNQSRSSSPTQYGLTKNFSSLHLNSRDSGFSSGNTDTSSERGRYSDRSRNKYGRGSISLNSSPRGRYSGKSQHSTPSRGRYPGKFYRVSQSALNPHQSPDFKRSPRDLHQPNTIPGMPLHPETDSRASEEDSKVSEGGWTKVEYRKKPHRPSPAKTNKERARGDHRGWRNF

Fibroblast growth factor receptor 3, sequence (P22607 23-806 limits assumed): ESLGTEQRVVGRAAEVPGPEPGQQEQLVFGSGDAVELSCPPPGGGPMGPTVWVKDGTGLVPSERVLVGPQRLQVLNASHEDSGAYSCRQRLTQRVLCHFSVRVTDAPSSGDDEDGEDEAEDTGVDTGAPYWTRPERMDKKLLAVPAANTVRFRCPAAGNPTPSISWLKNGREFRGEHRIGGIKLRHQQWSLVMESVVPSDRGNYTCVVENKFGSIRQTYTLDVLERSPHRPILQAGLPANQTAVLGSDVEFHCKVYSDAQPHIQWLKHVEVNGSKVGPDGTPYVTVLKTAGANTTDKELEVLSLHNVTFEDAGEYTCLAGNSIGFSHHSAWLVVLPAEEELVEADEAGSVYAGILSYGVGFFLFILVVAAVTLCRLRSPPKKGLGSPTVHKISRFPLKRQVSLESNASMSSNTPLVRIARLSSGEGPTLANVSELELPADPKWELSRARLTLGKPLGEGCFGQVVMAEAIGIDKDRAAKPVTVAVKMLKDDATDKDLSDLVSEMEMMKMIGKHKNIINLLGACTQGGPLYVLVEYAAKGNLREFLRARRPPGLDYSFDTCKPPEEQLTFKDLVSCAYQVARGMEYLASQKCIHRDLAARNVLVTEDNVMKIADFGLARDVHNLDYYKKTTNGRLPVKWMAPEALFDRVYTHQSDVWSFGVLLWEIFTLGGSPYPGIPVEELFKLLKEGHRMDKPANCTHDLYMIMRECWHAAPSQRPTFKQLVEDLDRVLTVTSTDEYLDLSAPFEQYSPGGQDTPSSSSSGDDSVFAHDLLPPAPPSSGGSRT
Tyrosine-protein kinase CSK (Homo sapiens), sequence (P41240 2-450 limits assumed): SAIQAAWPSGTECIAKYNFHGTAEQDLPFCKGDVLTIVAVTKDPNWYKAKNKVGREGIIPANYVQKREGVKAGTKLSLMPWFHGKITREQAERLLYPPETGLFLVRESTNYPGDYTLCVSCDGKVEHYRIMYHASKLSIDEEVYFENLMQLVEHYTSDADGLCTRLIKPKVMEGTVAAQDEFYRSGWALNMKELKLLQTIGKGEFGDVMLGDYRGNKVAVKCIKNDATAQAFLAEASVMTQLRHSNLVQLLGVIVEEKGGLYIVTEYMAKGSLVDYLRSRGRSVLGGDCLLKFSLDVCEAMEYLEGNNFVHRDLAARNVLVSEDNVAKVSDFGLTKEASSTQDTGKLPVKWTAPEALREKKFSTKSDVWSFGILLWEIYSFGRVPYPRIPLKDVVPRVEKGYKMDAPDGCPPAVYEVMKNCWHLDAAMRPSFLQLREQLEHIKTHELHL
Adenosine receptor A2a, sequence (P29274 whole entry): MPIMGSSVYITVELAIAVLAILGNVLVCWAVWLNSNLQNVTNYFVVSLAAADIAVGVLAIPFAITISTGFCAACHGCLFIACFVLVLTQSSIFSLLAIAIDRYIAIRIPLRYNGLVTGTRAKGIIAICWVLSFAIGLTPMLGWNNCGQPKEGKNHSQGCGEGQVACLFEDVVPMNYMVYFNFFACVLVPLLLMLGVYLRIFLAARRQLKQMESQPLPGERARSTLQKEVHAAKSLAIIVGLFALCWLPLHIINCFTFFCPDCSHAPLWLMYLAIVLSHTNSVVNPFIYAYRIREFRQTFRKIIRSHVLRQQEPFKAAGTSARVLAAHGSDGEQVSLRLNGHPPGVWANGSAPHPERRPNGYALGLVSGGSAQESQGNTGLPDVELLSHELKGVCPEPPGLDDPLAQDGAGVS
SRSF protein kinase 3 (Homo sapiens), sequence (Q9UPE1 whole entry): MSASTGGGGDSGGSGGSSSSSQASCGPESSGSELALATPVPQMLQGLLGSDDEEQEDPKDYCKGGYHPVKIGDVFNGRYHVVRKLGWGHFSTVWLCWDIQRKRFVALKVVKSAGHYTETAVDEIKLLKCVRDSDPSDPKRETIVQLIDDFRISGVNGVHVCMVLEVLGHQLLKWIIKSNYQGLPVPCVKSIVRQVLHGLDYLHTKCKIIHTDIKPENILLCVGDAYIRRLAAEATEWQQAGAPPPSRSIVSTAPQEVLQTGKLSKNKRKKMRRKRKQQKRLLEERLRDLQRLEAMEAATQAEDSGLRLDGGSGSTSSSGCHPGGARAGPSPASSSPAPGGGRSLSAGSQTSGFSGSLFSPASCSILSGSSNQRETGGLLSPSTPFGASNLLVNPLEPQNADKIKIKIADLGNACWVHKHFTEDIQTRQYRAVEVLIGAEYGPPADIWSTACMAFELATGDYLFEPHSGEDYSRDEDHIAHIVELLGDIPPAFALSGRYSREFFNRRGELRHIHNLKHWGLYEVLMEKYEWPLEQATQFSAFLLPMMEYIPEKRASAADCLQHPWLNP

In the case of `COc1cc(N(C)c2ccnc3ccc(C(F)(F)F)cc23)cc(OC)c1OC`, the % binding in assay [1] was 86%.

The compound `CN(C)C(=O)Cn1cc(-c2ccc(-c3cncc4ccccc34)cc2)cn1` registered a % of control in assay [2] of 85%. Turning to `C=CC(=O)Nc1cccc(C(=O)Nc2ccc(Nc3cc(-c4[nH]c(SC)nc4C)ccn3)cc2)c1`, the % of control in assay [3] came to 91%. In assay [4], `CN1CCN(C(=O)c2ccc3cc2OCCOCCNc2ccn4ncc-3c4n2)CC1` displayed a dTM of 1.5 K. With `CCC(=O)N1CCN(c2ccc(-n3c(=O)ccc4cnc5ccc(-c6cnc7ccccc7c6)cc5c43)cc2C(F)(F)F)CC1`, the % of control in assay [5] is 57%. As for `O[C@H]1CC[C@H](Nc2ncc3nc(Nc4c(F)cc(F)cc4F)n([C@H]4CCOC4)c3n2)CC1`, the % of control in assay [6] worked out at 98%.

Turning to `COCC(=O)NC/C=C/c1ccc2ncnc(Nc3ccc(Oc4ccc(C)nc4)c(C)c3)c2c1` [CP-724714], in assay [7], the % of control amounted to 76%.
